This note sets out measurements from patent publication US9255090B2, “Heterocyclyl derivatives and their use as prostaglandin D2 receptor modulators” (Actelion Pharmaceuticals Ltd., priority 2012, dated 2016).

The structures appear in SMILES notation. Counter-ions that a name gives are not always drawn.

This test concerns the target hCRTH2 receptor (Homo sapiens (Human), UniProt Q9Y5Y4). Nature of the test: hCRTH2 receptor membranes radioligand (3H-PGD2) displacement assay. The test is classed as binding. Conditions: 3H-PGD2 radioligand displacement, HEK293-hCRTH2 membranes. A digest of the protocol:
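HEK293-hCRTH2 membranes, 20 μg/well; 3H-PGD2 added at 2.5 nM; binding buffer 50 mM Tris, 10 mM MnCl2, 1 mM EDTA, pH 7.0; 90 min RT; GF/C filtration, scintillation count. Nonspecific binding: PGD2 at […].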

hCRTH2 receptor, sequence (Q9Y5Y4 whole entry): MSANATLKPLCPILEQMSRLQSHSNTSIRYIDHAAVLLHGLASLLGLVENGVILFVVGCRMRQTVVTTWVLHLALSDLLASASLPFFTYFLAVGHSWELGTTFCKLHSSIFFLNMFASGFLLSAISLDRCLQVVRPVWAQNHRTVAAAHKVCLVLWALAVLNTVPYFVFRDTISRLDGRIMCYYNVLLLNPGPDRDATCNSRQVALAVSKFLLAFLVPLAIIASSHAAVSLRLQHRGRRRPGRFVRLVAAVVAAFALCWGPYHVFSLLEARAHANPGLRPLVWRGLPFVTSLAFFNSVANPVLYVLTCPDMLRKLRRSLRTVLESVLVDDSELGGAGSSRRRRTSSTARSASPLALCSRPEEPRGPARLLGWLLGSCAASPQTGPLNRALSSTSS

For `COc1ccc(CC(=O)O)cc1-c1ccc(F)c2c1CN(C(=O)CC(c1ccccc1)c1ccc(Cl)cc1)CC2` (racemic) [Example 97, (±)-(3-{2-[3-(4-Chloro-phenyl)-3-phenyl-propionyl]-5-fluoro-1,2,3,4-tetrahydro-isoquinolin-8-yl}-4-methoxy-phenyl)-acetic acid], the IC50 came to 48.1 nM. This counts as double-digit nanomolar. To `CC(C)Oc1cc(CC(=O)O)ccc1-c1ccc(F)c2c1CN(C(=O)C[C@H](C)c1ccccc1)CC2` [Example 355, {4-[5-Fluoro-2-((S)-3-phenyl-butyryl)-1,2,3,4-tetrahydro-isoquinolin-8-yl]-3-isopropoxy-phenyl}-acetic acid] belongs 10.3 nM; to `COc1ccc(CC(=O)O)cc1-c1ccc(F)c2c1CN(C(=O)OCc1ccnn1C)CC2` [Example 148, 8-(5-Carboxymethyl-2-methoxy-phenyl)-5-fluoro-3,4-dihydro-1H-isoquinoline-2-carboxylic acid 2-methyl-2H-pyrazol-3-ylmethyl ester], 51.6 nM; to `COc1ccc(CC(=O)O)cc1-c1ccc(Cl)c2c1CN(C(=O)CCn1ncc3ccccc31)CC2` [Example 72, {3-[5-Chloro-2-(3-indazol-1-yl-propionyl)-1,2,3,4-tetrahydro-isoquinolin-8-yl]-4-methoxy-phenyl}-acetic acid], 37.8 nM.

The compound `COc1c(CC(=O)O)cccc1-c1ccc(F)c2c1CN(C(=O)OCc1ccccc1)CC2` [Example 423, 8-(3-Carboxymethyl-2-methoxy-phenyl)-5-fluoro-3,4-dihydro-1H-isoquinoline-2-carboxylic acid benzyl ester] yielded an IC50 of 180 nM.

On to `CCOC(=O)N1CCc2c(F)ccc(-c3cc(CC(=O)O)ccc3OC)c2C1` [Example 141, 8-(5-Carboxymethyl-2-methoxy-phenyl)-5-fluoro-3,4-dihydro-1H-isoquinoline-2-carboxylic acid ethyl ester], for which the IC50 worked out at 187 nM. The compound `CCOc1ccc(CC(=O)O)cc1-c1ccc(F)c2c1CN(C(=O)OCCC(C)(C)OC)CC2` [Example 383, 8-(5-Carboxymethyl-2-ethoxy-phenyl)-5-fluoro-3,4-dihydro-1H-isoquinoline-2-carboxylic acid 3-methoxy-3-methyl-butyl ester] returned a half-inhibitory concentration (IC50) of 19 nM. The compound `CC(C)Oc1ccc(CC(=O)O)cc1-c1ccc(F)c2c1CN(C(=O)[C@@H]1C[C@H]1c1ccccc1)CC2` [Example 27, {3-[5-Fluoro-2-((1R,2R)-2-phenyl-cyclopropanecarbonyl)-1,2,3,4-tetrahydro-isoquinolin-8-yl]-4-isopropoxy-phenyl}-acetic acid] displayed an IC50 of 12.9 nM. The result for `COc1ccc(CC(=O)O)cc1-c1c(F)cc(F)c2c1CN(C(=O)[C@@H]1C[C@H]1c1ccccc1)CC2` [Example 38, {3-[5,7-Difluoro-2-((1R,2R)-2-phenyl-cyclopropanecarbonyl)-1,2,3,4-tetrahydro-isoquinolin-8-yl]-4-methoxy-phenyl}-acetic acid] reads 11.2 nM; that for `CCOc1cc(CC(=O)O)ccc1-c1ccc(F)c2c1CN(C(=O)OCc1ccccn1)CC2` [Example 395, 8-(4-Carboxymethyl-2-ethoxy-phenyl)-5-fluoro-3,4-dihydro-1H-isoquinoline-2-carboxylic acid pyridin-2-ylmethyl ester], 3.7 nM. For the compound `CC(C)Oc1cc(CC(=O)O)ccc1-c1ccc(F)c2c1CN(C(=O)C[C@@H](C)c1ccccc1)CC2` [Example 356, {4-[5-Fluoro-2-((R)-3-phenyl-butyryl)-1,2,3,4-tetrahydro-isoquinolin-8-yl]-3-isopropoxy-phenyl}-acetic acid], the IC50 was 2.1 nM. With `COc1ccc(CC(=O)O)cc1-c1ccc(F)c2c1CN(C(=O)CC(C)C1CC1)CC2` (racemic) [Example 245], the half-inhibitory concentration (IC50) was 399 nM. On to `COc1ccc(CC(=O)O)cc1-c1ccc(F)c2c1CN(C(=O)CC1OCc3ccccc31)CC2` (racemic) [Example 362], for which the half-maximal inhibitory concentration (IC50) is 22.9 nM. This IC50 lies about 17-fold lower than the previous one. The result for `CC(C)(CC(=O)N1CCc2c(F)ccc(-c3ccc(CC(=O)O)cc3OCC(F)(F)F)c2C1)c1ccccc1` [Example 286, [4-[5-Fluoro-2-(3-methyl-3-phenyl-butyryl)-1,2,3,4-tetrahydro-isoquinolin-8-yl]-3-(2,2,2-trifluoro-ethoxy)-phenyl]-acetic acid] reads 8.9 nM; that for `O=C(O)Cc1cccc(-c2ccc(F)c3c2CN(C(=O)OCc2ccccc2)CC3)c1F` [Example 16, 8-(3-Carboxymethyl-2-fluoro-phenyl)-5-fluoro-3,4-dihydro-1H-isoquinoline-2-carboxylic acid benzyl ester], 25.2 nM; that for `COc1ccc(CC(=O)O)cc1-c1ccc(F)c2c1CN(C(=O)CC1CCCc3ccncc31)CC2` (racemic) [Example 247, hydrochloride], 484 nM. To `COc1ccc(CC(=O)O)cc1-c1ccc(F)c2c1CN(C(=O)NCc1ccccc1F)CC2` [Example 130, {3-[5-Fluoro-2-(2-fluoro-benzylcarbamoyl)-1,2,3,4-tetrahydro-isoquinolin-8-yl]-4-methoxy-phenyl}-acetic acid] belongs 17.7 nM; to `COc1ccc(CC(=O)O)cc1-c1ccc(F)c2c1CN(C(=O)OCc1ccccc1)C2` [Example 18, 4-(5-Carboxymethyl-2-methoxy-phenyl)-7-fluoro-1,3-dihydro-isoindole-2-carboxylic acid benzyl ester], 165 nM; to `O=C(O)Cc1ccc(C(F)(F)F)c(-c2ccc(F)c3c2CN(C(=O)OCc2ccccc2)CC3)c1` [Example 8, 8-(5-Carboxymethyl-2-trifluoromethyl-phenyl)-5-fluoro-3,4-dihydro-1H-isoquinoline-2-carboxylic acid benzyl ester], 7.31 nM.

For the compound `O=C(O)Cc1ccccc1-c1ccc(F)c2c1CN(C(=O)OCc1ccccc1)CC2` [Example 30, 8-(2-Carboxymethyl-phenyl)-5-fluoro-3,4-dihydro-1H-isoquinoline-2-carboxylic acid benzyl ester], the IC50 is 875 nM. The result for `COc1ccc(CC(=O)O)cc1-c1ccc(F)c2c1CN(C(=O)CC1COc3ccccc3C1)CC2` (racemic) [Example 242] reads 2.7 nM. As for `COc1cc(CC(=O)O)ccc1-c1ccc(F)c2c1CN(C(=O)CCOc1ccc(F)cc1)CC2` [Example 192, (4-{5-Fluoro-2-[3-(4-fluoro-phenoxy)-propionyl]-1,2,3,4-tetrahydro-isoquinolin-8-yl}-3-methoxy-phenyl)-acetic acid], the IC50 turned out to be 0.69 nM. This IC50 is about 3.9-fold lower than that of the compound before.

With `COc1ccc(C(C)C(=O)O)cc1-c1ccc(F)c2c1CN(C(=O)OCc1ccccc1)CC2` (racemic) [Example 171, (±)-8-[5-(1-Carboxy-ethyl)-2-methoxy-phenyl]-5-fluoro-3,4-dihydro-1H-isoquinoline-2-carboxylic acid benzyl ester], the IC50 came to 21.2 nM. Against the preceding compound, the IC50 is about 31-fold higher. Consider `CCOc1cc(CC(=O)O)ccc1-c1ccc(F)c2c1CN(C(=O)[C@@H]1C[C@H]1c1ccccc1)CC2` [Example 231, {3-Ethoxy-4-[5-fluoro-2-((1R,2R)-2-phenyl-cyclopropanecarbonyl)-1,2,3,4-tetrahydro-isoquinolin-8-yl]-phenyl}-acetic acid], for which the IC50 was 10.5 nM. Against the preceding compound, the IC50 is about 2-fold lower. In turn, `COc1ccc(CC(=O)O)cc1-c1ccc(F)c2c1CN(C(=O)CC(C)(O)c1ccccc1)CC2` (racemic) [Example 256] came in with a 50% inhibitory concentration (IC50) of 49.8 nM. The result for `Cc1cccc(CCC(=O)N2CCc3c(F)ccc(-c4cc(CC(=O)O)ccc4OCC(F)(F)F)c3C2)n1` [Example 304, [3-{5-Fluoro-2-[3-(6-methyl-pyridin-2-yl)-propionyl]-1,2,3,4-tetrahydro-isoquinolin-8-yl}-4-(2,2,2-trifluoro-ethoxy)-phenyl]-acetic acid] reads 12.6 nM; that for `CC(C)Oc1ccc(CC(=O)O)cc1-c1ccc(F)c2c1CN(C(=O)CC1CCOc3ccccc31)CC2` (racemic) [Example 290], 5 nM. The result for `CCC(CC(=O)N1CCc2c(F)ccc(-c3cc(CC(=O)O)ccc3OC)c2C1)c1ccccc1` (racemic) [Example 268] reads 63.6 nM. The result for `CCOc1ccc(CC(=O)O)cc1-c1ccc(F)c2c1CN(C(=O)CCc1ncccc1OC)CC2` [Example 309, (4-Ethoxy-3-{5-fluoro-2-[3-(3-methoxy-pyridin-2-yl)-propionyl]-1,2,3,4-tetrahydro-isoquinolin-8-yl}-phenyl)-acetic acid] reads 32.3 nM; that for `COc1ccc(/C=C/C(=O)N2CCc3c(F)ccc(-c4cc(CC(=O)O)ccc4OC)c3C2)cn1` [Example 86, (3-{5-Fluoro-2-[(E)-3-(6-methoxy-pyridin-3-yl)-acryloyl]-1,2,3,4-tetrahydro-isoquinolin-8-yl}-4-methoxy-phenyl)-acetic acid], 70.5 nM.

The compound `COc1ccc(CC(=O)O)cc1-c1ccc(F)c2c1CN(C(=O)OCc1cnc(C)s1)CC2` [Example 151, 8-(5-Carboxymethyl-2-methoxy-phenyl)-5-fluoro-3,4-dihydro-1H-isoquinoline-2-carboxylic acid 2-methyl-thiazol-5-ylmethyl ester] showed an IC50 of 5.73 nM. The result for `COc1ccc(CC(=O)O)cc1-c1ccc(C)c2c1CN(C(=O)OCc1ccccc1)CC2` [Example 155, 8-(5-Carboxymethyl-2-methoxy-phenyl)-5-methyl-3,4-dihydro-1H-isoquinoline-2-carboxylic acid benzyl ester] reads 46.8 nM; that for `COc1ccc(CC(=O)O)cc1-c1ccc(F)c2c1CN(C(=O)[C@@H]1C[C@H]1c1ccccc1C)CC2` (racemic) [Example 6, (±)-{3-[5-Fluoro-2-(trans-2-o-tolyl-cyclopropanecarbonyl)-1,2,3,4-tetrahydro-isoquinolin-8-yl]-4-methoxy-phenyl}-acetic acid], 4.22 nM. The compound `CC(C)Oc1cc(CC(=O)O)ccc1-c1ccc(F)c2c1CN(C(=O)CC1CCOc3ccccc31)CC2` (racemic) [Example 353] registered an IC50 of 1.2 nM. `CCOc1cc(CC(=O)O)ccc1-c1ccc(F)c2c1CN(C(=O)C1CCc3cccc(OC)c3C1)CC2` (racemic) [Example 325]: the half-maximal inhibitory concentration (IC50) came to 1.8 nM.
